Measured values as given in US11324803B2, “Methods and compositions for treatment of Gaucher Disease via modulation of C5a receptor” (Children's Hospital Medical Center, priority 2015, dated 2022).

What was measured:
GCase = molecular target: T1, GCase (Mus musculus, UniProt P17439); assay: CBE-induced GCase deficiency (pharmacologically-induced Gaucher disease) in mice; format: in vivo
T1 construct: endogenous in cells; host or cells: WT, C5aR1-/-, C5aR2-/-, Fcer1g-/- and Fcgr2b-/- mice, in vivo
T1 sequence (P17439 20-515): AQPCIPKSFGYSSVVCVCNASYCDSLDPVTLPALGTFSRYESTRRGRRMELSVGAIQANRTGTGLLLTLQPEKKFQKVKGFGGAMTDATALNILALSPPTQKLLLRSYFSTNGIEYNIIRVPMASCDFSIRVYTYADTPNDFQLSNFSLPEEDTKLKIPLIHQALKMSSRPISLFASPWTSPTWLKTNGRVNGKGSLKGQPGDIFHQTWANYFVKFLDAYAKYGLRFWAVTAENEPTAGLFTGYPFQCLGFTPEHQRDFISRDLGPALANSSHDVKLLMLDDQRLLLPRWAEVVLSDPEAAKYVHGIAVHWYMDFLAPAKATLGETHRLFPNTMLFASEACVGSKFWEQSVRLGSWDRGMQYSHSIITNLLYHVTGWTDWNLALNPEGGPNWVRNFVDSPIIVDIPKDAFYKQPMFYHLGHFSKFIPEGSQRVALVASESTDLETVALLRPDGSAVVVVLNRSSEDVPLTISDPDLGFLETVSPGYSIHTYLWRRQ
Text: Sera from human patients with Gaucher disease (n=10) and healthy volunteers (n=15) were from the freezer and de-identified. Human patients with Gaucher disease were diagnosed at Cincinnati Children's Hospital Medical Center (CCHMC). […] The study was approved by the ethics committee at CCHMC. In vivo C5aR1 deficiency or blockade in 9V/null mice and in a CBE-induced mouse model of Gaucher disease. To assess the impact of genetic or pharmacological targeting of C5aR1 on the inflammatory response in Gaucher disease, WT (n=10) and C5aR1^−/− mice (n=10) were treated with conduritol B epoxide (CBE), which is an irreversible inhibitor of acid β-glucosidase^24. More specifically, both mouse strains were injected intraperitoneally (i.p.) with 100 mg CBE/kg body weight or vehicle (PBS)/day for up to 60 days, which was the termination point of these experiments. After 60 days of the indicated treatment with CBE, immune cells (MΦs, DCs, and T cells) were purified from lung of these mouse strains and used for measurement of GC, costimulatory molecules, and several of the pro-inflammatory cytokines. In additional experiments, WT (n=15) or 9V/null mice (n=15) were injected with 100 μl of the C5aR antagonist A8^Δ71-73 (i.p. 0.5 mg/kg) or vehicle (100 μl, PBS) on five consecutive days. Five days after the final C5aRA treatment, liver, spleen and lung were separated and measured for GC accumulation. Further, DCs and CD4^+ T cells were purified from the lung of the indicated mouse strains and measured for costimulatory molecule expression and the production of pro-inflammatory cytokines. Preparation of tissue cells. Liver, spleen, lung and BM were harvested aseptically. Single cell suspensions from liver and lung were obtained from minced pieces that were treated with Liberase Cl (0.5 mg/mL) and DNase (0.5 mg/mL) in RPMI (45 min, 37° C.). Single cell suspensions from spleen were obtained by grinding and then filtration through a 70-micron cell strainer. […] For BM cells, femurs, tibias and humeri were flushed with sterile phosphate buffered saline (PBS), followed by RBC lysis (155 mM NH4Cl, 10 mM NaHCO3, 0.1 mM EDTA), passage through a strainer. Cells were then pelleted by centrifugation at 350×g. Viable cells were counted using a Neubauer chamber and trypan blue exclusion. DCs, MΦs, and CD4^+ T lymphocytes were purified from single cell suspensions of liver, spleen, and lung using CD11c, CD11b, and CD4 (L3T4) microbeads according to the manufacturer's protocol. The purity of the cells was ˜90%-95%.
To determine levels of IgG antibodies to GC or GS in mice and human Gaucher patients, 10 μg of GC or GS were dissolved in 1 ml of methanol and water to a final concentration of 10 μg/ml. One hundred microliters of this GC solution (1 μg/well) were used to coat a 96 well ELISA plate. In case of GS, plates were first filled with 300 µl of poly L lysine solution (0.1 mg/ml). After 10 minutes, excess solution was removed and plates were thoroughly rinsed with sterile water and allowed to dry for several hours. Such plates were then coated with 100 μl of indicated GS solution (1 μg/well). Both of these GC and GS coated plates were kept overnight at room temperature followed by three washings with PBS containing 1% Tween-20 (PBST). Test sera (100 μl; 1:100) isolated from WT (n=15) and 9V/null mice (n=15), CBE-treated (n=10) and untreated WT mice (n=10), as well as healthy humans (n=15) and untreated Gaucher disease patients (n=10), and control antibodies to GC were loaded into the lipid-coated wells followed by incubation for 1.5 hours at RT. […]

C5a receptor 1 = molecular target: T2, C5a receptor 1 (Rattus norvegicus, UniProt P97520); conditions: introduced orally; cited from earlier work
T2 construct: host or cells: rats, in vivo
T2 sequence (P97520 1-352): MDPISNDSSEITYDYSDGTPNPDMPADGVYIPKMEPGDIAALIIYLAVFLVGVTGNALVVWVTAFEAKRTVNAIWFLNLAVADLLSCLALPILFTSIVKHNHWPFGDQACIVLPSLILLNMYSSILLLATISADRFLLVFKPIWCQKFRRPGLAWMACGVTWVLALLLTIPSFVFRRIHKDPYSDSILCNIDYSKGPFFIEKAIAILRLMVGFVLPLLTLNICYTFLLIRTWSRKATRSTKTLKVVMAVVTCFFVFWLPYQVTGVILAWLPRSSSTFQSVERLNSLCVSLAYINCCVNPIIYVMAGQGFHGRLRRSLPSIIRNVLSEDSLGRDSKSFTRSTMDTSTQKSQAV

DCs and CD4+ T cells [1] = assay: C5a stimulation of DCs and CD4+ T cells: co-stimulatory molecule expression; format: cell-based, mouse; conditions: WT and 9V/null cells, C5a 0, 8, 16, 32 nM, 24 h
Protocol: (§1) To assess the GC-induced C5a influence on alteration in costimulatory molecules, DCs and CD4^+ T cells purified from lung of 9V/null and background matched WT mice (n=15, each group) were stimulated ex vivo in the presence and absence of different concentration of C5a (0,8,16, and 32 nM) for 24 hours at 37° C. DCs and CD4^+ T cells were purified liver, spleen, and lung of CBE-induced chemical model of Gaucher disease in C5aR1^−/− (n=10) and background-matched WT mice (n=10). These DCs were used to perform FACS staining with antibodies to CD40, CD80, and CD86, whereas CD4^+T cells were used to perform FACS staining with antibodies to CD40L and CD69. To assess the GC induced C5a impact on cytokines and chemokines production, DCs and CD4^+T cells (1:2.5 ratio) purified from lung of 9V/null (n=15) and background-matched WT mice (n=15) were co cultured in the presence and absence of C5a (32 nM) for 48 hours in complete medium. In additional experiments, indicated ratios ([…]) of DCs and CD4^+T cells purified from lung of CBE treated and untreated WT and C5aR1^−/− mice (n=10/each group) were co-cultured for 48 hrs in complete medium. Supernatant of these experiments were used to measure […], TNF-α, IL-1β, IL-6, IL-12p40, IL-12p70, IL-23, IL-17A/F and IL-23 by ELISA. […]

DCs and CD4+ T cells [2] = assay: DC / CD4+ T cell co-culture with C5a: cytokine production by ELISA; format: cell-based, mouse; conditions: cells from 9V/null mice vs WT, C5a 32 nM, 48 h co-culture
Protocol: as §1

[3] = WT mice treated for 30 days with CBE vs PBS

Molecule: O[C@H]1[C@H](O)[C@@H](O)[C@@H]2O[C@@H]2[C@@H]1O (racemic) [CBE, conduritol B epoxide]
- survival after daily injections of CBE for 60 days (GCase; C5aR1−/− mice, 100 mg CBE/kg/day i.p.): survived
- time of death under daily CBE injections (GCase; C5aR2−/− mice, 100 mg CBE/kg/day i.p.): 29 to 35 days
- time of death under daily CBE injections (GCase; Fcer1g−/− mice, 100 mg CBE/kg/day i.p.): 29 to 36 days
- time of death under daily CBE injections (GCase; Fcgr2b−/− mice, 100 mg CBE/kg/day i.p.): 29 to 36 days
- serum levels of C5a (GCase; [3]): elevated
- serum levels of IgG2a and IgG2b antibodies to GC (GCase; [3]): significantly elevated
- time of death under daily CBE injections (GCase; WT mice, 100 mg CBE/kg/day i.p.): 29 to 35 days

Molecule: AcF-[OP(D-Cha)WR]
- effect in rat models of acute inflammation (C5a receptor 1): beneficial

Molecule: HC-[OP(D-Cha)WR]
- effect in rat models of acute inflammation (C5a receptor 1): beneficial

Molecule: PMX53
- effect in rat models of acute inflammation (C5a receptor 1): beneficial

B1: C5a: small peptide of the complement anaphylatoxin family, cleaved from C5 (protein, UniProt P01031 678-751, looked up)
C5a anaphylatoxin: TLQKKIEEIAAKYKHSVVKKCCYDGACVNNDETCEQRAARISLGPRCIKAFTECCVVASQLRANISHKDMQLGR
modifications: C5a anaphylatoxin
notes: small peptide of the complement anaphylatoxin family, cleaved from C5
- expression levels of CD40, CD80, CD86 and CD40L and CD69 (DCs and CD4+ T cells [1]): increased
- production of IFN-γ, TNF-α, IL-1β, IL-6, and IL-17 (DCs and CD4+ T cells [2]): dramatically increased
